In patent EP4512427A1, “ANTIBODY-DRUG CONJUGATES BASED ON MOLECULAR GLUE DEGRADERS AND USES THEREOF” (Mablink Bioscience, priority 2023, dated 2025):

Target: T1, BCRP (Homo sapiens, UniProt Q9UNQ0)
T1 construct: host or cells: MDCK-BCRP (Preadyport)
T1 sequence (Q9UNQ0 1-655): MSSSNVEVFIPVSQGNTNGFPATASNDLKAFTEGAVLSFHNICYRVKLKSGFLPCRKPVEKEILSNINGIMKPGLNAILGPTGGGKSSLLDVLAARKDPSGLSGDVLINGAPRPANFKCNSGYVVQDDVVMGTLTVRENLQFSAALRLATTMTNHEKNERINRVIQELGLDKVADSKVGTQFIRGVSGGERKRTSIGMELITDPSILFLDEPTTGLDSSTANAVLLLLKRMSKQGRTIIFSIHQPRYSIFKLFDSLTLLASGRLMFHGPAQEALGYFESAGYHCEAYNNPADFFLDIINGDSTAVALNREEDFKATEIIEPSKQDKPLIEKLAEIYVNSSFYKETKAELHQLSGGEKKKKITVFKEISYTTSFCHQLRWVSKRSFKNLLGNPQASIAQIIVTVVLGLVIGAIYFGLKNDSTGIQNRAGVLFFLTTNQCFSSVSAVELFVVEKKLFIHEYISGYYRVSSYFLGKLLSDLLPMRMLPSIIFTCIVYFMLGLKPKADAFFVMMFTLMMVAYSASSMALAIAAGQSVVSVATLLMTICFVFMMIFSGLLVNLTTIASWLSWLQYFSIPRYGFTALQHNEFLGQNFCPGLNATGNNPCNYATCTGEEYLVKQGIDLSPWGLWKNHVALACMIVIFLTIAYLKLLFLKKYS
Experiment: BCRP efflux substrate assay in MDCK-BCRP
Assay type: in vitro ADME
Details: dog, pH 7.4, MDCK-BCRP
Method: MDR1 and BCRP efflux substrate assays were conducted in MDCK-MDR1 and MDCK-BCRP in vitro models (Preadyport™, Solvo Biotech) at Symeres (Nederland). Compound of the invention (donor well concentration of 5µM) were incubated in cell monolayer 24-transwell Preadyport system, using Preadyport recommended pH 7.4 assay buffer (donor and receiver wells). After 60 min of incubation (no shaking), samples are collected and suspended into triple volume of 66% cold acetonitrile. Samples are stored at -20°C until thawed, centrifuged and analyzed by LC-MS. Quinidine was used a positive control for the MDR1 assay, and prazosin was used as a positive control for the BCRP assay. Exatecan was used as a control, known not to be an MDR1 substrate. Residual DMSO content from compounds stock solutions was below 1% (v/v). The assay was performed in duplicate. The quantification of test compounds in donor or receptor compartment is conducted using relative LC/MS peak areas (samples of initial incubation solutions are used as a single point calibrator), without any spiked standard samples. The data is used for estimating apparent permeability (Papp) and calculation of efflux ratio.

Structure (SMILES): N[C@H]1CC[C@H](Nc2nc(NCc3ccc(-c4ccccn4)cc3)n3ncc(Br)c3n2)CC1 [Compound 2384]
- efflux ratio at 1 h, 5 µM (read-out: Efflux ratio B/A): 9.24
- Papp A→B at 1 h, 5 µM (5µM, 60 min, read-out: Papp A (donor) to B (acceptor)): 54.9 nm/s
- Papp B→A at 1 h, 5 µM (5µM, 60 min, read-out: Papp B (acceptor) to A (donor)): 507 nm/s
